Laboratory results: the NIST ThermoML archive (doi:10.1016/j.jct.2008.07.019)
Several values for one entry are separate records, joined by “and”; a condition that tells them apart may be missing. Equal entries are not always repeated. Numbers after ± are expanded uncertainties.

Assay: cn = amount concentration of the nth substance listed, in mol/dm3
Details: 101 kPa, Liquid, c1 = 2

SMILES | viscosity (298.15 K) | viscosity (303.15 K) | viscosity (308.15 K) | viscosity (313.15 K) | viscosity (318.15 K) | viscosity (323.15 K)
[Cl-].[K+] [potassium chloride] + O | 0.887 ± 0.022 mPa·s | 0.8552 ± 0.022 mPa·s | 0.7658 ± 0.02 mPa·s | 0.6995 ± 0.018 mPa·s | 0.6492 ± 0.017 mPa·s | 0.6037 ± 0.016 mPa·s
O=[N+]([O-])[O-].[K+] [potassium nitrate] + O | 0.9118 ± 0.023 mPa·s | 0.8404 ± 0.021 mPa·s | 0.7619 ± 0.02 mPa·s | 0.6989 ± 0.018 mPa·s | 0.64 ± 0.017 mPa·s | 0.5929 ± 0.016 mPa·s and 0.5829 ± 0.016 mPa·s
